target: Fibroblast growth factor receptor 4 (Homo sapiens, UniProt P22455); assay: The reaction was stopped by the addition of 70 ul of Stop buffer (100 mM HEPES pH 7.5, 0.015% Brij 35, 35 mM EDTA and 0.2% of Coating Reagent 3 (Caliper Lifesciences)). The plate was then read on a Caliper LabChip EZ Reader II (protocol settings: −1.9 psi, upstream voltage −700, downstream Voltage -3000, post sample sip 35S).; assay type: biochemical
Sequence (P22455 whole entry): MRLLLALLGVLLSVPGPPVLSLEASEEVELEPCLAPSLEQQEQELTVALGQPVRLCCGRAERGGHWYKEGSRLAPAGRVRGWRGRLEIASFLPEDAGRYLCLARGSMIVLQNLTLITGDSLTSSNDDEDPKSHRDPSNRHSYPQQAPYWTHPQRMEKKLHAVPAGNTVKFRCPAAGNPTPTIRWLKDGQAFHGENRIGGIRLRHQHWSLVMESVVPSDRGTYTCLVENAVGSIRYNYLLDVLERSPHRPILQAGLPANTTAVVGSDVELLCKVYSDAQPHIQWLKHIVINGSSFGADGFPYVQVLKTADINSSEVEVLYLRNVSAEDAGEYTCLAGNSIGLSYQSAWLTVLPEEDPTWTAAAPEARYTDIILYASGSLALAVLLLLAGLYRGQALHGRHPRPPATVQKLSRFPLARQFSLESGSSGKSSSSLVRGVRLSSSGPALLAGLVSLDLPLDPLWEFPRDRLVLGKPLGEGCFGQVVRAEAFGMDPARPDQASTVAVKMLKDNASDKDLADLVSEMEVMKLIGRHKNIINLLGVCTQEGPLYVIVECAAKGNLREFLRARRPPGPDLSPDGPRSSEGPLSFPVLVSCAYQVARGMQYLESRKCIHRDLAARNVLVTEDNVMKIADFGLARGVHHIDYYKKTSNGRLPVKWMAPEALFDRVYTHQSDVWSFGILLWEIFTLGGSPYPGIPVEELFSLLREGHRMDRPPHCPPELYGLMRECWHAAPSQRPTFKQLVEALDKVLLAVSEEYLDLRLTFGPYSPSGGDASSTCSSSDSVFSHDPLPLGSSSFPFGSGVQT

| Compound | IC50 [nM] |
| --- | --- |
| C=CC(=O)Nc1cccc(-c2cc3c(cn2)cc(-c2c(Cl)c(OC)cc(OC)c2Cl)c(=O)n3C2CCCC2)c1 | < 10 |
| C=CC(=O)N1CCc2ccc(-c3ncc4cc(-c5c(Cl)c(OC)cc(OC)c5Cl)c(=O)n(CC)c4n3)cc21 | < 10 |
| C=CC(=O)Nc1ccccc1-c1ncc2cc(-c3c(Cl)c(OC)cc(OC)c3Cl)cc(OC)c2n1 | > 1000 |
| C=CC(=O)Nc1ccccc1-c1cc2c(cn1)cc(-c1c(Cl)c(OC)cc(OC)c1Cl)c(=O)n2C1CCCC1 | < 10 |
| C=CC(=O)N1CC(C)(C)Oc2ccc(-c3cc4c(cn3)cc(-c3c(Cl)c(OC)cc(OC)c3Cl)c(=O)n4CC)cc21 | < 10 |

Source: ChEMBL document CHEMBL5725308, “Inhibitors of the fibroblast growth factor receptor” (2017)
